Measurements reported in US20260166039A1 (SCHRÖDINGER, INC., priority 2022, published 2026).
Like-named read-outs stand apart in the source and are kept apart here.

Key:
[1] = tested on: phosphorylation of Cdc2 Y15 (Wee1 substrate) in A427 cells; test: Phosphorylated Cdc2 MSD Electrochemiluminescence Assay; type: cell-based; details: Homo sapiens
Outline: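 A427 cells (RPMI 1640, 10% FBS) treated 20 h after plating with 3-fold serial compound dilutions, in duplicate, 37 °C, 5% CO2; total incubation 6 h. Lysate Cdc2 pY15 read by MSD electrochemiluminescence sandwich immunoassay; % remaining signal normalised to DMSO (high) and reference Wee1 inhibitor (low) controls.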

Wee1 kinase domain = target: T1, Wee1 kinase domain (Homo sapiens, UniProt P30291); test: Wee1 Kinase Biochemical Assay (ADP-Glo); details: 15 uM ATP
T1 construct: Wee1 kinase domain was purchased from Carna (catalog #05-177); purchased Carna 05-177
T1 sequence (P30291 299-569 limits assumed): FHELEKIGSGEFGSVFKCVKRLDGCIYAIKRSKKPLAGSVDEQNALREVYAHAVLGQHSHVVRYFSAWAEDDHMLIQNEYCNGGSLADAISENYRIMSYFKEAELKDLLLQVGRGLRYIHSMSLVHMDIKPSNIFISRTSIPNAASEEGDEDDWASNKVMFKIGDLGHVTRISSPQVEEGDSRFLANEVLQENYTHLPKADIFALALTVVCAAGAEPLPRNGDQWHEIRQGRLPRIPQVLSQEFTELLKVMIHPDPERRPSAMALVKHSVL
Outline: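 1 nM enzyme; 15 uM ATP; 2 ng/mL poly(Lys,Tyr 4:1); 40 mM Tris-HCl, 20 mM MgCl2, 0.1 mg/mL BSA, 2 mM DTT; 4 h, 25 °C; ADP-Glo; % inhibition vs DMSO and saturating positive-control wells.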

[2] = A-427, class symbols, read-out: A427 pCDC2 MSD IC50
[3] = class symbols, 1 nM Wee1 enzyme, 4 hours at 25° C.

SMILES	IC50 [1, 2]	IC50 (Wee1 kinase domain; [3])	IC50 ([1]; A-427, pCDC2 MSD)	IC50 (Wee1 kinase domain; Wee1 kinase domain, ADP-Glo)
CC1(C)C[C@H]2N(c3cccc(N4CCOC4=O)n3)c3nc(Nc4ccc(C5CNC5)cc4)ncc3[C@@]2(C)CO1 [Example 666, 3-(6-((4bR,8aR)-2-((4-(azetidin-3-yl)phenyl)amino)-4b,7,7-trimethyl-4b,7,8,8a-tetrahydropyrano[3′,4′:4,5]pyrrolo[2,3-d]pyrimidin-9(5H)-yl)pyridin-2-yl)oxazolidin-2-one]	100 to 1000 nM	< 10 nM		
C[C@H]1CN(c2ccc(Nc3ncc4c(n3)N(c3cccc(N=S(C)(C)=O)n3)[C@@H]3CC(C)(C)OC[C@]43C)cc2)CCN1C (single isomer, unassigned) [Example 500]	< 100 nM	< 10 nM		
C[C@H]1COC(=O)N1c1cccc(N2c3nc(Nc4ccc(O[C@@H]5CCN(C)C5)nc4)ncc3[C@@]3(C)COC(C)(C)C[C@@H]23)n1 (single isomer, unassigned) [Example 283]			100 to 1000 nM	< 10 nM
Cc1cccc(N2c3nc(Nc4ccc(N5CCN(C)CC5)cc4)ncc3[C@@]3(C)COC(C)(C)C[C@@H]23)n1 (single isomer, unassigned) [Example 759]	100 to 1000 nM	< 10 nM		
CN1C[C@H]2C[C@@H]1CN2c1ccc(Nc2ncc3c(n2)N(c2ccn(C)n2)[C@@H]2CC(C)(C)OC[C@]32C)cc1 (single isomer, unassigned) [Example 520]	1000 to 10000 nM	< 10 nM		
CN1CCC(c2cncc(Nc3ncc4c(n3)N(c3cccc(N=S(C)(C)=O)n3)[C@@H]3CC(C)(C)OC[C@]43C)c2)CC1 (single isomer, unassigned) [Example 485]	100 to 1000 nM	< 10 nM		
CC1(C)C[C@H]2N(c3cccc(N=S(C)(C)=O)n3)c3nc(Nc4ccc([C@]5(C)CCNC5)cc4)ncc3[C@@]2(C)CO1 (single isomer, unassigned) [Example 171]			100 to 1000 nM	< 10 nM
CNCc1cccc(N2c3nc(Nc4ccc(N5C6CCC5COC6)cc4)ncc3[C@@]3(C)COC(C)(C)C[C@@H]23)n1 (single isomer, unassigned) [Example 87]			100 to 1000 nM	< 10 nM
CN1C[C@H]2C[C@@H]1CN2c1ccc(Nc2ncc3c(n2)N(c2cccc(N4CCCC4=O)n2)[C@@H]2CC(C)(C)OC[C@]32C)cc1 [Example 631, 1-(6-((4bR,8aR)-4b,7,7-trimethyl-2-((4-((1R,4R)-5-methyl-2,5-diazabicyclo[2.2.1]heptan-2-yl)phenyl)amino)-4b,7,8,8a-tetrahydropyrano[3′,4′:4,5]pyrrolo[2,3-d]pyrimidin-9(5H)-yl)pyridin-2-yl)pyrrolidin-2-one]	100 to 1000 nM	< 10 nM		
CN1CCN(c2cncc(Nc3ncc4c(n3)N(c3cccc(N=S(C)(C)=O)n3)[C@@H]3CC(C)(C)OC[C@]43C)c2)CC1 (single isomer, unassigned) [Example 483]	< 100 nM	< 10 nM		
CN[C@H](Cc1ccc(Nc2ncc3c(n2)N(c2cccc(N4C(=O)OC[C@@H]4C)n2)[C@@H]2CC(C)(C)OC[C@]32C)cc1)C(=O)O (single isomer, unassigned) [Example 323]			100 to 1000 nM	< 10 nM
CN[C@H]1CCN(c2ccc(Nc3ncc4c(n3)N(c3cccc(N5C(=O)OC[C@@H]5C)n3)[C@@H]3CC(C)(C)OC[C@]43C)cc2)C1 (single isomer, unassigned) [Example 317]			100 to 1000 nM	< 10 nM
Cc1cc(Nc2ncc3c(n2)N(c2cccc(C(=O)N(C)C)n2)[C@@H]2CC(C)(C)OC[C@]32C)ccc1C1CCN(C)CC1 (single isomer, unassigned) [Example 585]	100 to 1000 nM	< 10 nM		
CN1CCC[C@H]1c1ccc(Nc2ncc3c(n2)N(c2cccc(N=S(C)(C)=O)n2)[C@@H]2CC(C)(C)OC[C@]32C)cn1 (single isomer, unassigned) [Example 216]			100 to 1000 nM	< 10 nM
CN1CC(c2ccc(Nc3ncc4c(n3)N(c3cccc(N=S(C)(C)=O)n3)[C@@H]3CC(C)(C)OC[C@]43C)cc2Cl)C1 (single isomer, unassigned) [Example 181]			< 100 nM	< 10 nM
CN1C[C@H]2C[C@@H]1CN2c1ccc(Nc2ncc3c(n2)N(c2cccc(N4CCCC4=O)n2)[C@@H]2CC(C)(C)OC[C@]32C)cc1F [Example 638, 1-(6-((4bR,8aR)-2-((3-fluoro-4-((1R,4R)-5-methyl-2,5-diazabicyclo[2.2.1]heptan-2-yl)phenyl)amino)-4b,7,7-trimethyl-4b,7,8,8a-tetrahydropyrano[3′,4′:4,5]pyrrolo[2,3-d]pyrimidin-9(5H)-yl)pyridin-2-yl)pyrrolidin-2-one]	100 to 1000 nM	< 10 nM		
CC1(C)C[C@H]2N(c3cccc([C@@H]4CCCN4)n3)c3nc(Nc4ccc(N5CCOCC5)cc4)ncc3[C@@]2(C)CO1 (single isomer, unassigned) [Example 526]	100 to 1000 nM	< 10 nM		
CC1(C)C[C@H]2N(c3cccc([C@H]4CNCCO4)n3)c3nc(Nc4ccc(N5CCOCC5)cc4)ncc3[C@@]2(C)CO1 [Example 737, (4bR,8aR)-4b,7,7-trimethyl-9-(6-((R)-morpholin-2-yl)pyridin-2-yl)-N-(4-morpholinophenyl)-4b,5,7,8,8a,9-hexahydropyrano[3′,4′:4,5]pyrrolo[2,3-d]pyrimidin-2-amine]	100 to 1000 nM	< 10 nM		
C[C@H]1COC(=O)N1c1cccc(N2c3nc(Nc4ccc(N5C[C@@H]6C[C@H]5CN6C)cc4)ncc3[C@@]3(C)COC(C)(C)C[C@@H]23)n1 (single isomer, unassigned) [Example 245]			100 to 1000 nM	< 10 nM
CNCc1cccc(N2c3nc(Nc4ccc(C(C)(C)C(=O)N(C)C)cc4)ncc3[C@@]3(C)COC(C)(C)C[C@@H]23)n1 (single isomer, unassigned) [Example 76]			100 to 1000 nM	< 10 nM
CC1(C)C[C@H]2N(c3ccc4c(n3)[C@@](C)(N)CC4)c3nc(Nc4ccc(N5CCOCC5)cc4)ncc3[C@@]2(C)CO1 (single isomer, unassigned) [Example 565]	100 to 1000 nM	< 10 nM		
CN1CCC(n2ccc(Nc3ncc4c(n3)N(c3cccc(N=S(C)(C)=O)n3)[C@@H]3CC(C)(C)OC[C@]43C)cc2=O)CC1 [Example 152, 4-(((4bR,8aR)-9-(6-((dimethyl(oxo)-16-sulfaneylidene)amino)pyridin-2-yl)-4b,7,7-trimethyl-4b,5,7,8,8a,9-hexahydropyrano[3′,4′:4,5]pyrrolo[2,3-d]pyrimidin-2-yl)amino)-1-(1-methylpiperidin-4-yl)pyridin-2(1H)-one]			100 to 1000 nM	< 10 nM
CN=[S@](C)(=O)c1cccc(N2c3nc(Nc4ccc(C5CCN(C)CC5)cc4)ncc3[C@@]3(C)COC(C)(C)C[C@@H]23)n1 (single isomer, unassigned) [Example 751]	100 to 1000 nM	< 10 nM		
CC1(C)CC2N(c3cccc([C@@H]4CCNC4)n3)c3nc(Nc4ccc(N5CCOCC5)cc4)ncc3C2(C)CO1 (stereo in doubt) [Example 539, (4bR,8aR)-4b,7,7-trimethyl-N-(4-morpholinophenyl)-9-(6-((R)-pyrrolidin-3-yl)pyridin-2-yl)-4b,5,7,8,8a,9-hexahydropyrano[3′,4′:4,5]pyrrolo[2,3-d]pyrimidin-2-amine]	100 to 1000 nM	< 10 nM		
CNCc1cccc(N2c3nc(Nc4ccc(N5C6CCC5COC6)c(C)c4)ncc3[C@@]3(C)COC(C)(C)C[C@@H]23)n1 (single isomer, unassigned) [Example 85]			100 to 1000 nM	< 10 nM
C[C@H]1COC(=O)N1c1cccc(N2c3nc(Nc4ccc(C5(C)COC5)cc4)ncc3[C@@]3(C)COC(C)(C)C[C@@H]23)n1 (single isomer, unassigned) [Example 303]			100 to 1000 nM	< 10 nM
CC1(C)C[C@H]2N(c3cccc(N4CCOC4=O)n3)c3nc(Nc4ccc([C@H]5CNCC5(F)F)cc4)ncc3[C@@]2(C)CO1 [Example 682, 3-(6-((4bR,8aR)-2-((4-((S)-4,4-difluoropyrrolidin-3-yl)phenyl)amino)-4b,7,7-trimethyl-4b,7,8,8a-tetrahydropyrano[3′,4′:4,5]pyrrolo[2,3-d]pyrimidin-9(5H)-yl)pyridin-2-yl)oxazolidin-2-one]	100 to 1000 nM	< 10 nM		
CN=[S@@](C)(=O)c1cccc(N2c3nc(Nc4ccc(N5CC6(CN(C)C6)C5)cc4)ncc3[C@@]3(C)COC(C)(C)C[C@@H]23)n1 [Example 771, (S)-methyl(methylimino)(6-((4bR,8aR)-4b,7,7-trimethyl-2-((4-(6-methyl-2,6-diazaspiro[3.3]heptan-2-yl)phenyl)amino)-4b,7,8,8a-tetrahydropyrano[3′,4′:4,5]pyrrolo[2,3-d]pyrimidin-9(5H)-yl)pyridin-2-yl)-16-sulfanone]	100 to 1000 nM	< 10 nM		
CN1CCN(c2cccc(N3c4nc(Nc5ccc(N6CCOCC6)cc5)ncc4[C@@]4(C)COC(C)(C)C[C@@H]34)n2)CC1 (single isomer, unassigned) [Example 535]	100 to 1000 nM	< 10 nM		
